Article PMC6466588, “Characterization and Antimicrobial Activity of Amphiphilic Peptide AP3 and Derivative Sequences” (Antibiotics, 2019)
No end group written: not given here.

Assays:
E. coli = format: cell-based; conditions: 18 h
Experimental: (§1) The antibacterial activities of each peptide were determined against various Gram-negative and Gram-positive bacteria using minimum inhibitory concentration (MIC) assays. The MIC is defined as the lowest concentration of peptide that prevents growth of bacteria using the optical density at 600 nm under standard growth conditions.
(§2) Bacteria were streaked from frozen stocks onto Difco LB-miller agar (BD, Franklin Lakes, NJ, USA) plates (E. coli MG1655 ATCC 47076, E. coli D31 [34], S. aureus ATCC25923, P. aeruginosa ATCC10145, K. pneumoniae 700603). Streaked plates were grown overnight at 37 °C and subsequently stored at 4 °C.
(§3) To prepare overnight cultures, a single colony of each bacterial strain was added to LB broth (Difco) in sterile culture tubes. Tubes were placed in the shaking incubator at 37 °C overnight to allow for sufficient bacterial growth. After incubation, dilutions of the overnight culture were made in LB (1:100) or Muller-Hinton broth (Criterion) (1:250) for MIC assay protocols (Hardy Diagnostics, Santa Maria, CA, USA).
(§4) Minimal inhibitory concentrations (MIC) were determined for each peptide The MIC assay was set up by adding 10 µL of the peptide stock solutions to wells of a sterile 96-well plate to which […] of diluted bacterial culture was added. The final bacterial load was ~5.0 × 10^5 cfu/mL as calculated from the Optical Density^@ 600 nm (OD600) measurements of a log-phase culture. The assay plate was incubated at 37 °C for 18 h. Bacterial growth was assayed by absorbance at OD600 using Multiskan microplate reader (Thermo Fisher, Waltham, MA, USA). […] All MIC values are averages of at least triplicate samples.

K. pneumoniae 700603 = format: cell-based; conditions: 700603, 18 h
Experimental: as §1, §2, §3, §4

P. aeruginosa ATCC10145 = format: cell-based; conditions: ATCC10145, 18 h
Experimental: as §1, §2, §3, §4

S. aureus ATCC25923 = format: cell-based; conditions: ATCC25923, 18 h
Experimental: as §1, §2, §3, §4

HEK-293 cells = test: Mammalian cell viability, MTT assay; format: cell-based, Human; conditions: HEK-293, MTT, 24 h, 37 °C, triplicate
Experimental: The cells were treated with five different concentrations of each peptide ranging from 0.0015 µM to 15 µM for a total of 24 h before viability measurements were performed.
Figure 6 Mammalian cell viability assay—Effects of AP3 peptides on HEK-293 cell viability assayed by MTT metabolic breakdown. A standard density of HEK-293 cells was incubated with serially diluted peptides for 24 h at 37 °C before the assay was performed. Percent viability was normalized to MTT breakdown observed in untreated controls. Color coding of the graph is AP3 (red), AP3K (blue), APX (purple), APX-17 (black), and APX-12 (green). All data represent the average of at least three replicates and error bars represent the standard deviation.
Cellular toxicity of specific peptides was determined by MTT ((3-(4,5-Dimethylthiazol-2-yl)-2,5-Diphenyltetrazolium Bromide)) assay. Human embryonic kidney (HEK) 293 cells with a lenti-CRE luciferase reporter gene were seeded in 96-well plates at a density of 1.5 × 10^4 cells per well and incubated with 5% CO2 at 37 °C for 24 h. Then, cells were treated with appropriate concentrations of peptides (0.0015–15 µM) and control for 24 h. After treatment for 24 h, 10 µL of MTT solution (5 mg MTT/mL PBS) was added to all wells and incubated for 4 h. Then, DMSO was added as a solubilizing agent and the absorbance was recorded at 540 nm. Each peptide concentration was performed in triplicate.

| Substance | MIC (E. coli) | MIC (K. pneumoniae 700603) | MIC (P. aeruginosa ATCC10145) | MIC (S. aureus ATCC25923) | cytotoxicity, dead cells (HEK-293 cells; 1.5 µM peptide) | cytotoxicity, dead cells (HEK-293 cells; 15 µM peptide) |
| --- | --- | --- | --- | --- | --- | --- |
| GWKTLLKKAEVKTVGKLALKHYL-NH2 [AP3K] | 9.3 µM | >9.30 µM | 0.29 µM | 2.32 µM | ~ 18% | ~ 40% |
| GWRTLLKKAEVKTVGKLALKHYL-NH2 [AP3] | 8.3 µM | 4.15 µM |  | 4.15 µM | ~ 18% |  |
| GYRTLLKKAEVKTVGKLALKHWL-NH2 [APX] | >15.0 µM | >15.0 µM | 15 µM | 15 µM |  |  |
| KKAEVKTVGKLALKHWL-NH2 [APX-17] | >8.00 µM | >8.00 µM | >8.00 µM | >8.00 µM |  |  |
| KTVGKLALKHWL-NH2 [APX-12] | >15.0 µM | >15.0 µM | >15.0 µM | >15.0 µM |  |  |
